# Patent US8471024B2, “Tetrahydrofuropyridones” (priority 2008, dated 2013)
# Target: T1, PHD2 (Homo sapiens, UniProt Q9GZT9)
# T1 construct: FLAG-tagged full length PHD2expressed in and purified from baculovirus-infected Sf9 cells; FLAG; made in house; host or cells: baculovirus-infected Sf9 cells
# Test: Assay for HIF-PHD2 Catalytic Activity (time resolved fluorescence, VHL complex detection)
# Assay type: biochemical
# Conditions: FLAG-tagged full length PHD2; 0.2 μM 2-oxoglutarate, 0.5 μM HIF-1α peptide; read-out: PHD2 Binding Activity IC50
# Method: Assay for HIF-PHD2Catalytic Activity To each well of a 96-well plate was added 1 μL of test compound in DMSO and 20 μl of assay buffer (50 mM Tris pH 7.4/0.01% Tween-20/0.1 mg/ml bovine serum albumin/10 μM ferrous sulfate/1mM sodium ascorbate/20 μg/ml catalase) containing 0.15 μg/ml FLAG-tagged full length PHD2expressed in and purified from baculovirus-infected Sf9 cells. After a 30 min preincubation at room temperature, the enzymatic reactions were initiated by the addition of 4 μL of substrates (final concentrations of 0.2 μM 2-oxoglutarate and 0.5 μM HIF-1α peptide biotinyl-DLDLEMLAPYJPMDDDFQL).
# T1 sequence (Q9GZT9 whole entry): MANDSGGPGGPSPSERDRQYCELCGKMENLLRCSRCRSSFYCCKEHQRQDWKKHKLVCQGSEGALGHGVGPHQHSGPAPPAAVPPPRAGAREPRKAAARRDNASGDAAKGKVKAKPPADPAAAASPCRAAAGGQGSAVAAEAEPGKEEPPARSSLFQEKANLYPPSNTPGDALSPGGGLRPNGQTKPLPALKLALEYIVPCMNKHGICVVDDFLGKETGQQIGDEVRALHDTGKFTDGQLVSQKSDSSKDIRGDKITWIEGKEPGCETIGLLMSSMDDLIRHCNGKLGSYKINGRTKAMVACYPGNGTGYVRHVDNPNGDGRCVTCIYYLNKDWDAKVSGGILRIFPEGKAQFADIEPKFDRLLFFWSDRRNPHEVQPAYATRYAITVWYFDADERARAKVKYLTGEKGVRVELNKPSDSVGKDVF
row,IC50 [nM],Compound
1,< 10,O=C(O)CNC(=O)c1c(O)c2c(n(Cc3ccc(-c4ccc(F)cc4Cl)cc3)c1=O)COC2 [Example 37]
2,< 10,"O=C(O)CNC(=O)c1c(O)c2c(n(Cc3ccc(OCC(F)(F)F)nc3)c1=O)COC2 [Example 19, N-[(4-hydroxy-2-oxo-1-{[6-(2,2,2-trifluoroethoxy)pyridin-3-yl]methyl}-1,2,5,7-tetrahydrofuro[3,4-b]pyridin-3-yl)carbonyl]glycine]"
3,< 10,O=C(O)CNC(=O)c1c(O)c2c(n(Cc3ccc(-c4ccc(F)cc4)cc3)c1=O)COC2 [Example 31]
4,< 10,Cc1cnc(Cn2c3c(c(O)c(C(=O)NCC(=O)O)c2=O)COC3)cn1 [Example 7]
5,< 10,"O=C(O)CNC(=O)c1c(O)c2c(n(Cc3ccc(-c4ccccc4-n4cccn4)cc3)c1=O)COC2 [Example 32, N-[(4-hydroxy-2-oxo-1-{[2′-(1H-pyrazol-yl)biphenyl-4-yl]methyl}-1,2,5,7-tetrahydrofuro[3,4-b]pyridin-3-yl}carbonyl)glycine]"
6,10 to 100,CC1(C)OCc2c(O)c(C(=O)NCC(=O)O)c(=O)n(Cc3nc4ccccc4s3)c21 [Example 25]
7,< 10,O=C(O)CNC(=O)c1c(O)c2c(n(Cc3ccc(-c4ccc(F)cc4Cl)cc3F)c1=O)COC2 [Example 39]
8,< 10,"O=C(O)CNC(=O)c1c(O)c2c(n(CC3Cc4ccccc4C3)c1=O)COC2 [Example 11, N-{[1-(2,3-dihydro-1H-inden-2-ylmethyl)-4-hydroxy-2-oxo-1,2,5,7-tetrahydrofuro[3,4-b]pyridin-3-yl]carbonyl}glycine]"
9,< 10,"O=C(O)CNC(=O)c1c(O)c2c(n(Cc3ccc(-c4ccccc4OC(F)(F)F)nc3)c1=O)COC2 [Example 48, N-{[4-hydroxy-2-oxo-1-({6-[2-(trifluoromethoxy)phenyl]pyridin-3-yl}methyl)-1,2,5,7-tetrahydrofuro[3,4-b]pyridin-3-yl]carbonyl}glycine]"
10,< 10,"Cc1ccccc1-n1ccc(Cn2c3c(c(O)c(C(=O)NCC(=O)O)c2=O)COC3)n1 [Example 20, N-[(4-hydroxy-1-{[1-(2-methylphenyl)-1-H-pyrazol-3-yl]methyl}-2-oxo-1,2,5,7-tetrahydrofuro[3,4-b]pyridin-3-yl)carbonyl]glycine]"
11,< 10,"O=C(O)CNC(=O)c1c(O)c2c(n(Cc3ccc(-c4ccccc4C(F)(F)F)cc3)c1=O)COC2 [Example 33, N-[(4-hydroxy-2-oxo-1-{[2′-(trifluoromethyl)biphenyl-4-yl]methyl}-1,2,5,7-tetrahydrofuro[3,4-b]pyridin-3-yl}carbonyl)glycine]"
12,< 10,"O=C(O)CNC(=O)c1c(O)c2c(n(Cc3ccc(-c4ccccc4)nc3)c1=O)COC2 [Example 41, N-({4-hydroxy-2-oxo-1-[(6-phenylpyridin-3-yl)methyl]-1,2,5,7-tetrahydrofuro[3,4-b]pyridin-3-yl}carbonyl)glycine]"
13,< 10,"CC(C)Oc1ccc(Cn2c3c(c(O)c(C(=O)NCC(=O)O)c2=O)COC3)cc1 [Example 8, N-{[4-hydroxy-1-(4-isopropoxybenzyl)-2-oxo-1,2,5,7-tetrahydrofuro[3,4-b]pyridin-3-yl]carbonyl}glycine]"
14,< 10,"O=C(O)CNC(=O)c1c(O)c2c(n(Cc3ccc(-c4nccs4)cc3)c1=O)COC2 [Example 23, N-({4-hydroxy-2-oxo-1-[4-(1,3-thiazol-2-yl)benzyl]-1,2,5,7-tetrahydrofuro[3,4-b]pyridin-3-yl}carbonyl)glycine]"
15,< 10,"O=C(O)CNC(=O)c1c(O)c2c(n(Cc3ccc(OC(F)F)cc3)c1=O)COC2 [Example 17, N-{[1-(4-difluoromethoxybenzyl)-4-hydroxy-2-oxo-1,2,5,7-tetrahydrofuro[3,4-b]pyridin-3-yl]carbonyl}glycine]"
16,< 10,O=C(O)CNC(=O)c1c(O)c2c(n(Cc3ccc(-c4ccccc4OCC(F)(F)F)nc3)c1=O)COC2 [Example 46]
17,< 10,"O=C(O)CNC(=O)c1c(O)c2c(n(Cc3ccc(-c4cc(Cl)cc(Cl)c4)nc3)c1=O)COC2 [Example 42, N-[(1-{[6-(3,5-dichlorophenyl)pyridin-3-yl]methyl}-4-hydroxy-2-oxo-1,2,5,7-tetrahydrofuro[3,4-b]pyridin-3-yl)carbonyl]glycine]"
18,< 10,"O=C(O)CNC(=O)c1c(O)c2c(n(Cc3cnc(-c4ccc(F)cc4F)cn3)c1=O)COC2 [Example 51, N-[(1-{[5-(2,4-difluorophenyl)pyrazin-2-yl]methyl}-4-hydroxy-2-oxo-1,2,5,7-tetrahydrofuro[3,4-b]pyridin-3-yl)carbonyl]glycine]"

row,IC50 [nM],Compound
1,< 10,"O=C(O)CNC(=O)c1c(O)c2c(n(Cc3cnc(Cl)cn3)c1=O)COC2 [Example 12, N-({1-[(5-chloropyrazin-2-yl)methyl]-4-hydroxy-2-oxo-1,2,5,7-tetrahydrofuro[3,4-b]pyridin-3-yl}carbonyl)glycine]"
2,< 10,"O=C(O)CNC(=O)c1c(O)c2c(n(Cc3noc(-c4ccccc4)n3)c1=O)COC2 [Example 5, N-({4-hydroxy-2-oxo-1-[(5-phenyl-1,2,4-oxadiazol-3-yl)methyl]-1,2,5,7-tetrahydrofuro[3,4-b]pyridin-3-yl}carbonyl)glycine]"
3,< 10,O=C(O)CNC(=O)c1c(O)c2c(n(Cc3ccc(-c4ccc(Cl)cc4)cc3)c1=O)COC2 [Example 30]
4,< 10,"O=C(O)CNC(=O)c1c(O)c2c(n(Cc3ccc(-c4ccc(F)cc4Cl)nc3)c1=O)COC2 [Example 50, N-[(1-{[6-(2-chloro-4-fluorophenyl)pyridin-3-yl]methyl}-4-hydroxy-2-oxo-1,2,5,7-tetrahydrofuro[3,4-b]pyridin-3-yl)carbonyl]glycine]"
5,< 10,O=C(O)CNC(=O)c1c(O)c2c(n(Cc3ccc(-c4ccccc4Cl)nc3)c1=O)COC2 [Example 29]
6,< 10,"O=C(O)CNC(=O)c1c(O)c2c(n(Cc3ccc(-c4ccccc4C(F)(F)F)nc3)c1=O)COC2 [Example 47, N-{[4-hydroxy-2-oxo-1-({6-[2-(trifluoromethyl)phenyl]pyridin-3-yl}methyl)-1,2,5,7-tetrahydrofuro[3,4-b]pyridin-3-yl]carbonyl}glycine]"
7,< 10,"O=C(O)CNC(=O)c1c(O)c2c(n(Cc3ccc(Br)cc3F)c1=O)COC2 [Example 15, N-{[1-(4-bromo-2-fluorobenzyl)-4-hydroxy-2-oxo-1,2,5,7-tetrahydrofuro[3,4-b]pyridin-3-yl]carbonyl}glycine]"
8,< 10,"O=C(O)CNC(=O)c1c(O)c2c(n(Cc3ccc(-c4cc(F)ccc4F)nc3)c1=O)COC2 [Example 45, N-[(1-{[6-(2,5-difluorophenyl)pyridin-3-yl]methyl}-4-hydroxy-2-oxo-1,2,5,7-tetrahydrofuro[3,4-b]pyridin-3-yl)carbonyl]glycine]"
9,< 10,"O=C(O)CNC(=O)c1c(O)c2c(n(Cc3cccnn3)c1=O)COC2 [Example 4, N-{[4-hydroxy-2-oxo-1-(pyridazin-3-ylmethyl)-1,2,5,7-tetrahydrofuro[3,4-b]pyridin-3-yl]carbonyl}glycine]"
10,< 10,"O=C(O)CNC(=O)c1c(O)c2c(n(Cc3ccc(-c4ccccc4F)nc3)c1=O)COC2 [Example 49, N-[(1-{[6-(2-fluorophenyl)pyridin-3-yl]methyl}-4-hydroxy-2-oxo-1,2,5,7-tetrahydrofuro[3,4-b]pyridin-3-yl)carbonyl]glycine]"
11,< 10,"COC(=O)c1ccccc1-c1ccc(Cn2c3c(c(O)c(C(=O)NCC(=O)O)c2=O)COC3)cc1 [Example 36, N-[(4-hydroxy-1-{[2′-(methoxycarbonyl)biphenyl-4-yl]methyl}-2-oxo-1,2,5,7-tetrahydrofuro[3,4,-b]pyridin-3-yl}carbonyl)glycine]"
12,< 10,"CC1OCc2c1c(O)c(C(=O)NCC(=O)O)c(=O)n2Cc1ccc(C(F)(F)F)nc1 (stereo not drawn) [Example 14, N-[(4-hydroxy-5-methyl-2-oxo-1-{[6-(trifluoromethyl)pyridine-3-yl]methyl}-1,2,5,7-tetrahydrofuro[3,4-b]pyridin-3-yl}carbonyl)glycine]"
13,< 10,"O=C(O)CNC(=O)c1c(O)c2c(n(Cc3ccc(OCC(F)(F)F)cc3)c1=O)COC2 [Example 24, N-({4-hydroxy-2-oxo-1-[4-(2,2,2-trifluoroethoxy)benzyl]-1,2,5,7-tetrahydrofuro[3,4-b]pyridin-3-yl}carbonyl)glycine]"
14,< 10,"O=C(O)CNC(=O)c1c(O)c2c(n(Cc3nc4ccccc4s3)c1=O)COC2 [Example 1, N-{[1-(1,3-benzothiazol-2-ylmethyl)-4-hydroxy-2-oxo-1,2,5,7-tetrahydrofuro[3,4-b]-pyridin-3-yl]carbonyl}glycine]"
15,< 10,"O=C(O)CNC(=O)c1c(O)c2c(n(Cc3cnc(-c4ccc(F)c(F)c4)cn3)c1=O)COC2 [Example 52, N-[(1-{[5-(3,4-difluorophenyl)pyrazin-2-yl]methyl}-4-hydroxy-2-oxo-1,2,5,7-tetrahydrofuro[3,4-b]pyridin-3-yl)carbonyl]glycine]"
16,< 10,O=C(O)CNC(=O)c1c(O)c2c(n(Cc3ccc(-c4ccccc4Cl)cc3)c1=O)COC2 [Example 28]
17,< 10,"O=C(O)CNC(=O)c1c(O)c2c(n(Cc3ccc(Br)cc3)c1=O)COC2 [Example 10, N-{[1-(4-bromobenzyl)-4-hydroxy-2-oxo-1,2,5,7-tetrahydrofuro[3,4-b]pyridin-3-yl]carbonyl)glycine]"

row,Compound,IC50 [nM]
1,"Cc1nn(-c2ccccc2)nc1Cn1c2c(c(O)c(C(=O)NCC(=O)O)c1=O)COC2 [Example 21, N-({4-hydroxy-1-[(5-methyl-2-phenyl-2H-1,2,3-triazol-4-yl)methyl]-2-oxo-1,2,5,7-tetrahydrofuro[3,4-b]pyridin-3-yl}carbonyl)glycine]",< 10
